Biological target: T1, Receptor-interacting serine/threonine-protein kinase 1 (Homo sapiens, UniProt Q13546)
T1 sequence (Q13546 whole entry): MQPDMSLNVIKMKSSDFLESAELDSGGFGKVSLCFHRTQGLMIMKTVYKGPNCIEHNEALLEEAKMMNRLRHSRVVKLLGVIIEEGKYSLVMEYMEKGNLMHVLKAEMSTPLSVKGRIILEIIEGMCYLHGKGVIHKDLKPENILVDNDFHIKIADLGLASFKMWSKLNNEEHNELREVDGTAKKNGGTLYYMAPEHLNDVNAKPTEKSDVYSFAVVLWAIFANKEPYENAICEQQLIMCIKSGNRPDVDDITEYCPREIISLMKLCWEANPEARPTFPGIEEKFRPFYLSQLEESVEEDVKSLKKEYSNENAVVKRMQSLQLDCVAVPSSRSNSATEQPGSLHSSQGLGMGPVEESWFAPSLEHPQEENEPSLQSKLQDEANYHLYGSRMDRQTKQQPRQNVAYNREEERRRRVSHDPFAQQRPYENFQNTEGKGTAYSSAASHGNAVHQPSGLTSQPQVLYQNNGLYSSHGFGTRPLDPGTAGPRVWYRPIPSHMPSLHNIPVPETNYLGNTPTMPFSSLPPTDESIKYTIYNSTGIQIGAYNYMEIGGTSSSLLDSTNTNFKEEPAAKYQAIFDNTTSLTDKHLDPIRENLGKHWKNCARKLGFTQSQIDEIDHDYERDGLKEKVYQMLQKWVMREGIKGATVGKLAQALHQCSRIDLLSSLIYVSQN
Assay: Fluorescent Polarization Binding (FP Binding) Assay: Test compounds were serially diluted in DMSO at 100 fold final concentrations in the assay (1% DMSO final). In each well of a 384-well Plate were dispensed 0.1 μL of compound solution (or DMSO for controls) followed by 5 μL of GST-hRIPK1 (8-327) at twice the final concentrations in assay buffer (50 mM HEPES pH 7.5, 10 mM NaCl, 50 mM MgCl2, 0.02% CHAPS, 0.5 mM DTT and 0.01% Pluronic F127). For negative control the enzyme addition was replaced by assay buffer only.After addition of 5 μL of fluorescentlabeled ligand at twice the final concentrations in assay buffer, the plate was incubated at RT for […]. At the end, the binding was measured as FP value with the Envision (PerkinElmer) plate reader using filter for an excitation λ=531 nm FP and an emission λ=595 nm FP (S & P-pol). GST-hRIPK1 (8-327) enzyme was produced via Baculovirus expression.

Compound	IC50 [nM]
Cc1nc(N2CCC(F)(C(=O)N3CCOc4c(C#N)cncc4C3)CC2)ncc1F	< 100
CC1(C(=O)N2CCOc3ccncc3C2)CCN(c2ncc(F)cn2)CC1(F)F (configuration not stated)	< 100
